Test results published in ChEMBL document CHEMBL3603759, “Ribosome-targeting antibiotics as inhibitors of oncogenic microRNAs biogenesis: Old scaffolds for new perspectives in RNA targeting” (Bioorg Med Chem, 2015).
Calls of active or inactive are those of the source. No cut-off for these calls is given here.

How the values were obtained:
[1] = Binding affinity to 5'-FAM-pre-miR-17 (unknown origin) after 4 hrs by fluorescence assay
[2] = Binding affinity to 5'-FAM-pre-miR-373 (unknown origin) after 4 hrs by fluorescence assay
[3] = Binding affinity to 5'-FAM-pre-miR-372 (unknown origin) after 4 hrs by fluorescence assay
[4] = Inhibition of pre-miR-17 (unknown origin) cleavage assessed as reduction of oncogenic microRNAs biogenesis at 200 uM by measuring fluorescence every minute for 5 hrs using 5'-FAM,3'-dabcyl-pre-miRNA beacons by FRET assay in presence of recombinant Dicer
[5] = Inhibition of pre-miR-373 (unknown origin) cleavage assessed as reduction of oncogenic microRNAs biogenesis at 200 uM by measuring fluorescence every minute for 5 hrs using 5'-FAM,3'-dabcyl-pre-miRNA beacons by FRET assay in presence of recombinant Dicer
[6] = Inhibition of pre-miR-372 (unknown origin) cleavage assessed as reduction of oncogenic microRNAs biogenesis at 200 uM by measuring fluorescence every minute for 5 hrs using 5'-FAM,3'-dabcyl-pre-miRNA beacons by FRET assay in presence of recombinant Dicer
[7] = Inhibition of pre-miR-21 (unknown origin) cleavage assessed as reduction of oncogenic microRNAs biogenesis at 200 uM by measuring fluorescence every minute for 5 hrs using 5'-FAM,3'-dabcyl-pre-miRNA beacons by FRET assay in presence of recombinant Dicer
[8] = Ratio of Kd for 5'-FAM-pre-miR-372 (unknown origin) in presence of 100-fold excess of Escherichia coli tRNA to Kd for 5'-FAM-pre-miR-372 (unknown origin)
[9] = Binding affinity to 5'-FAM-pre-miR-372 (unknown origin) after 4 hrs by fluorescence assay in presence of 100-fold excess of 15-mer DNA
[10] = Inhibition of pre-miR-17 (unknown origin) cleavage assessed as reduction of oncogenic microRNAs biogenesis by measuring fluorescence every minute for 5 hrs using 5'-FAM,3'-dabcyl-pre-miRNA beacons by FRET assay in presence of recombinant Dicer
[11] = Inhibition of pre-miR-373 (unknown origin) cleavage assessed as reduction of oncogenic microRNAs biogenesis by measuring fluorescence every minute for 5 hrs using 5'-FAM,3'-dabcyl-pre-miRNA beacons by FRET assay in presence of recombinant Dicer
[12] = Inhibition of pre-miR-372 (unknown origin) cleavage assessed as reduction of oncogenic microRNAs biogenesis by measuring fluorescence every minute for 5 hrs using 5'-FAM,3'-dabcyl-pre-miRNA beacons by FRET assay in presence of recombinant Dicer
[13] = Binding affinity to 5'-FAM-pre-miR-372 (unknown origin) assessed as change in total free energy by thermodynamic assay
[14] = Binding affinity to 5'-FAM-pre-miR-372 (unknown origin) after 4 hrs by fluorescence assay in presence of 100-fold excess of Escherichia coli tRNA
[15] = Inhibition of pre-miR-21 (unknown origin) cleavage assessed as reduction of oncogenic microRNAs biogenesis by measuring fluorescence every minute for 5 hrs using 5'-FAM,3'-dabcyl-pre-miRNA beacons by FRET assay in presence of recombinant Dicer
[16] = Ratio of Kd for 5'-FAM-pre-miR-372 (unknown origin) in presence of 100-fold excess of 15-mer DNA to Kd for 5'-FAM-pre-miR-372 (unknown origin)

| Molecule | Kd [1] | Kd [2] | Kd [3] | inhibition [4] | inhibition [5] | inhibition [6] | inhibition [7] | Kd ([1]; read-out: Kd) [µM] | Kd ([2]; read-out: Kd) [µM] | Ratio [8] | Kd [9] [µM] | IC50 [10] [µM] | IC50 [11] [µM] | IC50 [12] [µM] | Activity [13] [%] | Kd ([3]; read-out: Kd) [µM] | Kd [14] [µM] | IC50 [15] [µM] | Ratio [16] |
| --- | --- | --- | --- | --- | --- | --- | --- | --- | --- | --- | --- | --- | --- | --- | --- | --- | --- | --- | --- |
| CCC[C@@H]1C[C@@H](C(=O)N[C@@H]([C@H]2O[C@H](SC)[C@H](O)[C@@H](O)[C@H]2O)[C@H](C)Cl)N(C)C1 [CLINDAMYCIN] | Not Active | Not Active | Not Active |  |  |  |  |  |  |  |  |  |  |  |  |  |  |  |  |
| CN[C@@H]1[C@H](O)[C@H](NC)[C@H]2O[C@@]3(O)C(=O)C[C@@H](C)O[C@H]3O[C@@H]2[C@H]1O [SPECTINOMYCIN] | Not Active | Not Active | Not Active | inactive | inactive | inactive | inactive |  |  |  |  |  |  |  |  |  |  |  |  |
| C[C@H]1c2cccc(O)c2C(=O)C2=C(O)[C@]3(O)C(=O)C(C(N)=O)=C(O)[C@@H](N(C)C)[C@@H]3[C@@H](O)[C@@H]21 [DOXYCYCLINE] |  |  |  | 20% | 20% | 20% | 20% | 0.94 | 1.42 | 2 | 1.62 | 380 | 366 | 567 | 78 | 0.908 | 2 | 555 | 1.8 |
| CC[C@H]1OC(=O)[C@H](C)[C@@H](O[C@H]2C[C@@](C)(OC)[C@@H](O)[C@H](C)O2)[C@H](C)[C@@H](O[C@@H]2O[C@H](C)C[C@H](N(C)C)[C@H]2O)[C@](C)(O)C[C@@H](C)CN(C)[C@H](C)[C@@H](O)[C@]1(C)O [AZITHROMYCIN] |  |  |  |  |  |  |  | 1.63 | 1.41 | 1.2 | 7.43 |  |  |  |  | 1.62 | 1.9 |  | 4.5 |
| CN(C)[C@@H]1C(O)=C(C(N)=O)C(=O)[C@@]2(O)C(O)=C3C(=O)c4c(O)cccc4[C@@](C)(O)[C@H]3[C@H](O)[C@@H]12 [OXYTETRACYCLINE] |  |  |  | 10% | 10% | 10% | 10% | 6.22 | 5.2 | 1.3 | 10.2 | 392 | 491 | 657 | 90 | 6.15 | 8.01 | 613 | 1.6 |
| NC[C@H]1O[C@H](O[C@H]2[C@H](O)[C@@H](O[C@H]3O[C@H](CO)[C@@H](O)[C@H](N)[C@H]3O)[C@H](N)C[C@@H]2N)[C@H](N)[C@@H](O)[C@@H]1O [BEKANAMYCIN] | Not Active | Not Active | Not Active | inactive | inactive | inactive | inactive |  |  |  |  |  |  |  |  |  |  |  |  |
| COc1ccc(C[C@H](N)C(=O)N[C@H]2[C@@H](O)[C@H](n3cnc4c(N(C)C)ncnc43)O[C@@H]2CO)cc1 [PUROMYCIN] |  |  |  |  |  |  |  | 5.85 | 12.7 |  |  |  |  |  |  | 11.8 |  |  |  |
| CC[C@H]1OC(=O)[C@H](C)[C@@H](O[C@H]2C[C@@](C)(OC)[C@@H](O)[C@H](C)O2)[C@H](C)[C@@H](O[C@@H]2O[C@H](C)C[C@H](N(C)C)[C@H]2O)[C@](C)(O)C[C@@H](C)C(=O)[C@H](C)[C@@H](O)[C@]1(C)O [ERYTHROMYCIN] |  |  |  |  |  |  |  | 27.4 | 6.51 | 1.4 | 30.7 |  |  |  |  | 6.11 | 8.73 |  | 5 |
| CN[C@@H]1[C@@H](O[C@H]2O[C@H](CO)[C@@H](N)[C@H](O)[C@H]2O)OC2C[C@@H](N)[C@@H](O[C@H]3[C@H](O)[C@@H](O)[C@H](N)C[C@@H]3N)OC2[C@@H]1O (some centres undefined) [APRAMYCIN] |  |  |  | 60% | 60% | 60% | 60% | 1.03 | 4.2 | 3 | 6.55 |  | 335 | 162 | 72 | 2.99 | 9.05 | 170 | 2.2 |
| CN[C@@H]1[C@H](O[C@H]2[C@H](O[C@H]3[C@H](O)[C@@H](O)[C@H](N=C(N)N)[C@@H](O)[C@@H]3N=C(N)N)O[C@@H](C)[C@]2(O)C=O)O[C@@H](CO)[C@H](O)[C@H]1O [STREPTOMYCIN] |  |  |  | inactive | inactive | inactive | inactive | 18.5 | 45 | 2 | 48.2 |  |  | 678 | 47 | 26.8 | 61.1 | 688 | 1.8 |
| NC[C@H]1O[C@H](O[C@H]2[C@H](O)[C@@H](O)[C@H](N)C[C@@H]2N)[C@H](N)[C@@H](O)[C@@H]1O [NEAMINE] |  |  |  | 10% | 10% | 10% | 10% | 24.9 | 187 | 2.5 | 248 |  | 751 | 298 | 72 | 160 | 394 |  | 1.5 |
| GENTAMICIN [listing 1 of 2 here] |  |  |  | 10% | 10% | 10% | 10% |  |  | 1.1 |  |  |  |  | 63 |  |  |  | 4 |
| CC(=O)NC[C@H]1CN(c2ccc(N3CCOCC3)c(F)c2)C(=O)O1 [LINEZOLID] | Not Active | Not Active | Not Active |  |  |  |  |  |  |  |  |  |  |  |  |  |  |  |  |
| GENTAMICIN [listing 2 of 2 here] |  |  |  |  |  |  |  | 4.98 | 6.64 |  | 8.1 | 540 | 159 | 667 |  | 3.67 | 4.2 | 242 |  |
| CCC[C@@H]1C[C@@H](C(=O)N[C@@H]([C@H]2O[C@H](SC)[C@H](O)[C@@H](O)[C@H]2O)[C@@H](C)O)N(C)C1 [LINCOMYCIN] | Not Active | Not Active | Not Active |  |  |  |  |  |  |  |  |  |  |  |  |  |  |  |  |
| O=C(N[C@H](CO)[C@H](O)c1ccc([N+](=O)[O-])cc1)C(Cl)Cl [CHLORAMPHENICOL] | Not Active | Not Active | Not Active |  |  |  |  |  |  |  |  |  |  |  |  |  |  |  |  |
| NC[C@@H]1O[C@H](O[C@H]2[C@@H](O)[C@H](O[C@@H]3[C@@H](O)[C@H](N)C[C@H](N)[C@H]3O[C@H]3O[C@H](CO)[C@@H](O)[C@H](O)[C@H]3N)O[C@@H]2CO)[C@H](N)[C@@H](O)[C@@H]1O [PAROMOMYCIN] |  |  |  | 10% | 10% | 10% | 10% | 44 | 91.2 | 1 | 167 |  | 345 | 773 | 61 | 138 | 133 | 543 | 1.2 |
